Reference: patent US9113629B2, “4-amino-6-(4-substituted-phenyl)-picolinates and 6-amino-2-(4-substituted-phenyl)-pyrimidine-4-carboxylates and their use as herbicides” (DOW AGROSCIENCES LLC, priority 2013, dated 2015)
Where two headings read alike, the source gives them in different places.

Key:
[1] = test system: Key Broadleaf Weed and Crop Species; experiment: Post-emergent Test II herbicidal activity (Table 5); assay type: in vivo; conditions: post-emergence, 336 h, post-emergent, 14 days after application; for pest or weed control at 70 g/ha: 70 g ai/ha; for pest or weed control at 140 g/ha: 140 g ai/ha
Outline: (§1)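 Greenhouse-grown plants at first or second true leaf stage were sprayed post-emergence with compound in acetone/DMSO-based aqueous spray containing crop oil concentrate and surfactant, at 187 L/ha, highest rate plus ½× to 1/16× dilutions. After 14 d, injury was scored visually versus untreated plants, 0 (none) to 100% (complete kill).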

[2] = test system: Key Grass and Sedge Weeds as well as Grass Crops; experiment: Post-emergent Test II herbicidal activity (Table 6); assay type: in vivo; conditions: post-emergence, 336 h; for pest or weed control at 70 g/ha: application rate 70 g ai/ha; for pest or weed control at 140 g/ha: application rate 140 g ai/ha
Outline: as §1

[3] = ABUTH: velvetleaf (Abutilon theophrasti), read-out: Visual Growth Reduction (%) 14 Days After Application ABUTH
[4] = AMARE: redroot pigweed (Amaranthus retroflexus), read-out: Visual Growth Reduction (%) 14 Days After Application AMARE
[5] = BRSNN: oilseed-rape, canola (Brassica napus), read-out: Visual Growth Reduction (%) 14 Days After Application BRSNN
[6] = CHEAL: lambsquarters (Chenopodium album), read-out: Visual Growth Reduction (%) 14 Days After Application CHEAL
[7] = EPHHL: wild poinsettia (Euphorbia heterophylla), read-out: Visual Growth Reduction (%) 14 Days After Application EPHHL
[8] = HELAN: sunflower (Helianthus annuus), read-out: Visual Growth Reduction (%) 14 Days After Application HELAN
[9] = VIOTR: wild pansy (Viola tricolor), read-out: Visual Growth Reduction (%) 14 Days After Application VIOTR
[10] = Triticum aestivum, TRZSS (wheat), read-out: Visual Growth Reduction (%) 14 Days After Application, TRZSS
[11] = CYPES: yellow nutsedge (Cyperus esculentus), read-out: Visual Growth Reduction (%) 14 Days After Application, CYPES
[12] = DIGSA: crabgrass (Digitaria sanguinalis), read-out: Visual Growth Reduction (%) 14 Days After Application, DIGSA
[13] = ECHCG: barnyardgrass (Echinochloa crus-galli), read-out: Visual Growth Reduction (%) 14 Days After Application, ECHCG
[14] = ORYSA: rice (Oryza sativa), read-out: Visual Growth Reduction (%) 14 Days After Application, ORYSA
[15] = SETFA: giant foxtail (Setaria faberi), read-out: Visual Growth Reduction (%) 14 Days After Application, SETFA
[16] = SORVU: grain sorghum (Sorghum vulgare), read-out: Visual Growth Reduction (%) 14 Days After Application, SORVU
[17] = ZEAMX: maize, corn (Zea mays), read-out: Visual Growth Reduction (%) 14 Days After Application, ZEAMX

Structure (SMILES) | pest or weed control at 70 g/ha [1, 3] [%] | pest or weed control at 140 g/ha [1, 3] [%] | pest or weed control at 70 g/ha [1, 4] [%] | pest or weed control at 140 g/ha [1, 4] [%] | pest or weed control at 70 g/ha [1, 5] [%] | pest or weed control at 140 g/ha [1, 5] [%] | pest or weed control at 70 g/ha [1, 6] [%] | pest or weed control at 140 g/ha [1, 6] [%] | pest or weed control at 70 g/ha [1, 7] [%] | pest or weed control at 140 g/ha [1, 7] [%] | pest or weed control at 70 g/ha [1, 8] [%] | pest or weed control at 140 g/ha [1, 8] [%] | pest or weed control at 70 g/ha [1, 9] [%] | pest or weed control at 140 g/ha [1, 9] [%] | melting point [°C] | pest or weed control at 70 g/ha [2, 10] [%] | pest or weed control at 140 g/ha [2, 10] [%] | pest or weed control at 70 g/ha [2, 11] [%] | pest or weed control at 140 g/ha [2, 11] [%] | pest or weed control at 70 g/ha [2, 12] [%] | further results
Nc1cc(-c2cc(F)c(Br)cc2F)nc(C(=O)O)c1Cl [Compound 3] | 95 to 100 | 95 to 100 | 95 to 100 | 95 to 100 | 85 to 94 | 95 to 100 | 95 to 100 | 95 to 100 | 95 to 100 | 95 to 100 | 85 to 94 | 85 to 94 | 95 to 100 | 95 to 100 | 172 to 174 | 60 to 74 | 60 to 74 | 95 to 100 | 95 to 100 | 75 to 84 | pest or weed control at 140 g/ha [2, 12]: 85 to 94%; pest or weed control at 70 g/ha [2, 13]: 85 to 94%; pest or weed control at 140 g/ha [2, 13]: 85 to 94%; pest or weed control at 70 g/ha [2, 14]: 30 to 44%; pest or weed control at 140 g/ha [2, 14]: 45 to 59%; pest or weed control at 70 g/ha [2, 15]: 95 to 100%; pest or weed control at 140 g/ha [2, 15]: 95 to 100%; pest or weed control at 70 g/ha [2, 16]: 85 to 94%; pest or weed control at 140 g/ha [2, 16]: 85 to 94%; pest or weed control at 70 g/ha [2, 17]: 85 to 94%; pest or weed control at 140 g/ha [2, 17]: 85 to 94%
Nc1cc(-c2ccc(I)cc2F)nc(C(=O)O)c1Cl [Compound 124] | 85 to 94 | 85 to 94 | 95 to 100 | 95 to 100 | 95 to 100 | 95 to 100 | 95 to 100 | 95 to 100 | 95 to 100 | 95 to 100 | 85 to 94 | 85 to 94 | 95 to 100 | 95 to 100 | 208.4 to 210.2 | 45 to 59 | 60 to 74 | 95 to 100 | 95 to 100 | 75 to 84 | pest or weed control at 140 g/ha [2, 12]: 85 to 94%; pest or weed control at 70 g/ha [2, 13]: 85 to 94%; pest or weed control at 140 g/ha [2, 13]: 85 to 94%; pest or weed control at 70 g/ha [2, 14]: 30 to 44%; pest or weed control at 140 g/ha [2, 14]: 30 to 44%; pest or weed control at 70 g/ha [2, 15]: 60 to 74%; pest or weed control at 140 g/ha [2, 15]: 95 to 100%; pest or weed control at 70 g/ha [2, 16]: 95 to 100%; pest or weed control at 140 g/ha [2, 16]: 95 to 100%; pest or weed control at 70 g/ha [2, 17]: 75 to 84%; pest or weed control at 140 g/ha [2, 17]: 75 to 84%
Cc1c(-c2ccc(I)cc2)nc(C(=O)O)c(Cl)c1N [Compound 116, 4-Amino-3-chloro-6-(4-iodophenyl)-5-methylpicolinic acid] | 95 to 100 | 95 to 100 | 75 to 84 | 85 to 94 | 85 to 94 | 95 to 100 | 85 to 94 | 85 to 94 | 0 to 29 | 0 to 29 | 95 to 100 | 95 to 100 | 0 to 29 | 0 to 29 | 179.5 to 181 | 45 to 59 | 45 to 59 | 0 to 29 | 0 to 29 | 45 to 59 | pest or weed control at 140 g/ha [2, 12]: 60 to 74%; pest or weed control at 70 g/ha [2, 13]: 45 to 59%; pest or weed control at 140 g/ha [2, 13]: 60 to 74%; pest or weed control at 70 g/ha [2, 14]: 0 to 29%; pest or weed control at 140 g/ha [2, 14]: 0 to 29%; pest or weed control at 70 g/ha [2, 15]: 45 to 59%; pest or weed control at 140 g/ha [2, 15]: 60 to 74%; pest or weed control at 70 g/ha [2, 16]: 30 to 44%; pest or weed control at 140 g/ha [2, 16]: 45 to 59%; pest or weed control at 70 g/ha [2, 17]: 45 to 59%; pest or weed control at 140 g/ha [2, 17]: 60 to 74%
Cc1c(-c2ccc(Br)cc2)nc(C(=O)O)c(Cl)c1N [Compound 78, 4-Amino-6-(4-bromophenyl)-3-chloro-5-methylpicolinic acid] | 95 to 100 | 95 to 100 | 85 to 94 | 95 to 100 | 85 to 94 | 95 to 100 | 85 to 94 | 85 to 94 | 0 to 29 | 0 to 29 | 95 to 100 | 95 to 100 | 0 to 29 | 0 to 29 | 185.5 to 187 | 45 to 59 | 45 to 59 | 0 to 29 | 95 to 100 | 0 to 29 | pest or weed control at 140 g/ha [2, 12]: 0 to 29%; pest or weed control at 70 g/ha [2, 13]: 0 to 29%; pest or weed control at 140 g/ha [2, 13]: 0 to 29%; pest or weed control at 70 g/ha [2, 14]: 0 to 29%; pest or weed control at 140 g/ha [2, 14]: 0 to 29%; pest or weed control at 70 g/ha [2, 15]: 45 to 59%; pest or weed control at 140 g/ha [2, 15]: 60 to 74%; pest or weed control at 70 g/ha [2, 16]: 0 to 29%; pest or weed control at 140 g/ha [2, 16]: 0 to 29%; pest or weed control at 70 g/ha [2, 17]: 0 to 29%; pest or weed control at 140 g/ha [2, 17]: 30 to 44%
